Data on one compound can be found in patent EP4582087A1, “PHARMACEUTICAL COMPOSITION FOR TREATING LYMPHOMA” (SymBio Pharmaceuticals Limited, priority 2022, dated 2024).

Structures are written as SMILES.

The subject of data set [1] is NK/T lymphoma cells (KAI-3, NK-S1, KHYG-1). As to the kind of experiment: Cell viability (CellTiter-Glo 2.0), NK/T lymphoma cell proliferation. Type of data set: cell-based. To be noted: Fig. 1. How it is done:
(§1) Cell viability was determined using Promega CellTiter-Glo (registered trademark) 2.0 Cell Viability Assay (Promega Corporation, Madison, Wisconsin, USA) according to the manufacturer's protocol. Specifically, lymphoma cells were plated in a 96-well plate at a concentration of 2 × 10^3 cells per 100 µL of culture medium, and a drug (BCV) was added to each well at each concentration. At each time point, Promega CellTiter-Glo (registered trademark) 2.0 Cell Viability Assay reagent was added to the wells and incubated at room temperature for 10 minutes. Subsequently, […] was measured using a Tecan M200 Infinite 96-well plate reader and IControl software 1.6 (Tecan, Männedorf, Switzerland). Cell viability was evaluated as a percentage of a control absorbance. A dose-response curve was generated by plotting the percentage of viable cells against the drug concentration to analyze the growth-inhibitory effect. The IC50 values were estimated using GraphPad Prism version 8.0.2 (GraphPad Software). All reactions were performed in triplicate (n = 3). Furthermore, EBV positivity or EBV negativity of the cells was detected based on the presence or absence of an EBV-derived transcript (e.g., EBER, EBNA1, and the like).
(In general: ATP-based viability assays read luminescence as a measure of living cells.)

A further data set deals with LMP1. As to the kind of experiment: Western blot of LMP1 expression in lymphoma cells. Type of data set: cell-based. The settings on record: NK-S1 and KAI-3; 0.1 and 1 µg/mL BCV for 72 hours; Fig. 4. As for the experimental part:
(§2) NK-S1 and KAI-3 cell lines were treated with 0.1 and 1 µg/mL BCV for 72 hours. Subsequently, whole-cell lysates were separated by SDS-PAGE using 4 to 15% Mini-PROTEAN™ TGX Stain-Free™ Protein Gel (Bio-Rad Laboratories, Inc., Hercules, CA, USA) and then transferred to a 0.2 µm PVDF membrane (Bio-Rad Laboratories, Inc., Hercules, California, USA). The membrane was blocked and then gently shaken overnight at 4°C in a solution containing 5% skimmed milk powder (Bio-Rad Laboratories, Inc., Hercules, CA, USA) or 5% bovine serum albumin (Sigma-Aldrich, Darmstadt, Germany), TBST solution (50 mM Tris/HCl, pH 7.4, 150 mM NaCl, 0.1% Tween-20), and primary antibodies (anti-EBNA1 antibody (Santa Cruz Biotechnology, Inc.) and anti-LMP1 antibody (Dako)). Exposure to an appropriate HRP-conjugated anti-mouse antibody (Cytiva, Washington D.C., USA) was performed for 1 hour. Finally, chemiluminescent detection was performed using SuperSignal Substrate Western Blotting Kit (Thermo Fisher Scientific Inc., Massachusetts, USA). Imaging was performed using ChemiDoc™ XRS+ (a system with Image Lab™ software, Bio-Rad Laboratories, Inc., Hercules, California, USA).
(In general: A western blot detects proteins with antibodies after separation by electrophoresis.)

In a further data set the test system is calreticulin. Put plainly: Immunogenic cell death: calreticulin staining by flow cytometry. The class given is cell-based. To be noted: NK-S1 and KAI-3; BCV 0.1 ug/mL or 1 ug/mL for 72 hours; Fig. 6. As for the experimental part: (§3) NK-S1 and KAI-3 cell lines were treated with BCV (0.1 ug/mL or 1 ug/mL) or DMSO alone for 72 hours. For calreticulin staining, cells were incubated with a calreticulin antibody (1:100, room temperature, 30 minutes) (#ab92516, Abcam Limited.) and washed prior to analysis. Then, the cells were resuspended in PBS and analyzed using a cell analyzer (BD LSR Fortessa, BD Biosciences, San Jose, CA, USA). Data were analyzed using FlowJo version 10.8.0 (BD Biosciences, San Jose, California). The extracellular level of HMGB1 in the case of BCV treatment was measured using Lumit HMGB1 immunoassay (Promega Corporation, Madison, Wisconsin, USA).
(In general: Flow cytometry measures light scatter and fluorescence of single cells or particles in a stream.)

The subject of another data set is STING pathway. Put plainly: Whole transcriptome sequencing / GSEA / quantitative PCR, STING pathway genes. Type of data set: cell-based. The settings on record: NK-S1 and KAI-3; BCV 0.1 µg/mL and 1 µg/mL; Figs. 5B and 5C. As for the experimental part: (§4) BCV-treated NK-S1 and KAI-3 cell lines were subjected to sequencing of the entire transcription product. Gene set enrichment analysis (GSEA) was performed using the Molecular Signatures Database (MSigDB) Hallmark gene set. […] Quantitative PCR was performed using Maxima SYBR Green/ROX qPCR Master Mix (Thermo Scientific, USA). The ΔCt value of a gene's mRNA expression was calculated as the difference between the Ct value of the gene and that of an internal control, GAPDH. The ΔΔCt was calculated by subtracting the ΔCt value of the treatment group from the ΔCt value of an untreated control group. The fold change in expression was calculated using the formula 2^ΔΔCt.

The next data set relates to EBNA1. As to the kind of experiment: Western blot of EBNA1 expression in lymphoma cells. Type of data set: cell-based. To be noted: NK-S1 and KAI-3; 0.1 and 1 µg/mL BCV for 72 hours; Fig. 4. As for the experimental part:
as §2

For data set [2], the system named is MYC-positive lymphoma cells (Raji, Daudi, VAL, BJAB, DB). Put plainly: Cell viability (CellTiter-Glo 2.0), MYC-positive B-cell lymphoma cell lines. Type of data set: cell-based. The settings on record: 96 hours, Fig. 8. As for the experimental part: Different B-cell lymphoma cell lines were individually treated with each concentration of BCV for 96 hours. Cell viability was quantified using Promega CellTiter-Glo (registered trademark) 2.0 Cell Viability Assay (Promega Corporation, Madison, Wisconsin, USA) according to the manufacturer's protocol. Information on the presence or absence of EBV and the molecular information were obtained by referring to a public database. The cell lines shown in Fig. 8 have been reported to be classified into groups as follows: Raji and Daudi as Burkitt's lymphoma (BL) cell lines; VAL and DB as diffuse large B-cell lymphoma (DLBCL) cell lines; and BJAB as a BL cell line or a DLBCL cell line. All of these are B lymphomas in which MYC is either translocated or amplified. Raji, Daudi, and VAL are EBV-positive cell lines, while BJAB and DB are EBV-negative cell lines. VAL is triple-hit lymphoma and DB is double-hit lymphoma.

The subject of data set [3] is eleven NK/T lymphoma cell lines (KAI-3, NK-S1, NK-92, KHYG-1, NK-YS, MEC-04, SNK-1, SNK-6, YT, HANK-1, or SNT-8). As to the kind of experiment: Cell viability (CellTiter-Glo 2.0), eleven NK/T lymphoma cell lines. The settings on record: Fig. 9. Type of data set: cell-based. How it is done:
The effect of BCV on cell viability was examined in eleven NK/T lymphoma cell lines (KAI-3, NK-S1, NK-92, KHYG-1, NK-YS, MEC-04, SNK-1, SNK-6, YT, HANK-1, or SNT-8). Cell viability was quantified using Promega CellTiter-Glo (registered trademark) 2.0 Cell Viability Assay (Promega Corporation, Madison, Wisconsin, USA) according to the manufacturer's protocol. In brief, cells were plated in a 96-well plate at a concentration of 2 × 10^3 cells per 100 µL of culture medium, and a drug was added at each concentration. After each time point, Promega CellTiter-Glo (registered trademark) 2.0 Cell Viability Assay reagent was added to the wells and incubated at room temperature for 10 minutes. Subsequently, […] was measured using a Tecan M200 Infinite 96-well plate reader and iControl software 1.6 (Tecan, Männedorf, Switzerland). Cell viability was calculated as a percentage of the control absorbance. A dose-response curve was generated by plotting the percentage of viable cells against the drug concentration to analyze the growth-inhibitory effect. The IC50 values were estimated using GraphPad Prism version 8.0.2 (GraphPad Software). All reactions were performed in triplicate (n = 3).

The subject of another data set is HMGB1. As to the kind of experiment: Immunogenic cell death: extracellular HMGB1 (Lumit HMGB1 immunoassay). To be noted: NK-S1 and KAI-3; BCV treatment; Fig. 6. The class given is cell-based. As for the experimental part:
as §3

The next data set relates to NK-S1 cell line. Put plainly: Combined treatment cell viability (CellTiter-Glo 2.0), Chou-Talalay combination index. Type of data set: cell-based. The settings on record: for type of combined effect based on the combination index value: CI less than 1 indicates synergism; for effect of combined treatment compared to each drug alone: Fig. 7. As for the experimental part:
NK-S1 cell line was treated with a selected dose of etoposide, gemcitabine, or gamma irradiation, with or without BCV (0.1 µg/mL). Cell viability was quantified using Promega CellTiter-Glo (registered trademark) 2.0 Cell Viability Assay (Promega Corporation, Madison, Wisconsin, USA) according to the manufacturer's protocol. A combination index (CI) was calculated using Chou-Talalay median-effect analysis to determine if the effect was synergism, an additive effect, or antagonism. Specifically, a CI value less than 1 indicates synergism, and a CI value more than 1 indicates antagonism. A CI value close to 1 (i.e., between 0.9 and 1.1) was considered indicative of an additive effect.

Data set [4] has as its system EBV-positive NK/T lymphoma cells (NK-S1). As to the kind of experiment: Cell viability (CellTiter-Glo 2.0), comparison with antiviral agents. The class given is cell-based. To be noted: compared to acyclovir, ganciclovir, adefovir, foscarnet, and penciclovir, Fig. 2. How it is done: as §1
The experimental procedure was the same as in Example 1, except that BCV, acyclovir, ganciclovir, adefovir, foscarnet, and penciclovir were used as the drugs.

In data set [5] the test system is EBV-positive NK/T lymphoma. Put plainly: In vivo drug treatment of mice inoculated with NK-S1 cells. Set-up: species or system NSG mice. To be noted: 40 mg/kg intraperitoneally twice weekly. How it is done: In in vivo drug treatment with BCV, 6-week-old female NSG mice were inoculated with 0.5 × 10^6 cells (NK-S1), and BCV or a control solvent was administered intraperitoneally at a dosage of 40 mg/kg twice weekly. Tumor measurements were recorded twice weekly until the tumor size in the control group reached approximately 2000 mm^3. Mice were euthanized according to the IACUC guideline. The tumor sizes of the experimental group and the control group (n = 8 per group) were averaged at each time point (Days 1, 5, 8, 12, and 15) and compared statistically. Throughout the experiment, signs of toxicity including diarrhea and weight loss were monitored.

The subject of another data set is Myc. As to the kind of experiment: Whole transcriptome sequencing / GSEA / quantitative PCR, Myc expression. To be noted: NK-S1 and KAI-3. The class given is cell-based. As for the experimental part: as §4
The mark [6] stands for this setting: BCV 0.1 µg/mL combined with etoposide.
[7] abbreviates: BCV 0.1 µg/mL combined with gemcitabine.

Consider `CCCCCCCCCCCCCCCCOCCCOP(=O)(O)CO[C@H](CO)Cn1ccc(N)nc1=O` [BCV, [(2S)-1-(4-amino-2-oxopyrimidin-1-yl)-3-hydroxypropan-2-yl]oxymethyl-(3-hexadecoxypropoxy)phosphinic acid], for which the “IC50 value of cell growth-suppressive action” value in data set [1] (EBV-positive (KAI-3 and NK-S1) versus EBV-negative (KHYG-1) NK/T lymphoma cells) is “significantly lower for EBV-positive NK/T lymphoma cells (KAI-3 and NK-S1) compared to EBV-negative NK/T lymphoma cells (KHYG-1)”. Also, the “proliferation of NK/T lymphoma cells” value in data set [1] (KAI-3, NK-S1, KHYG-1) was “suppressed the proliferation of NK/T lymphoma cells”. The “expression level of LMP1” value in the data set with LMP1 is recorded as “reduced the expression level”. Also, in the data set on calreticulin, the “number of calreticulin-positive cells” value was “clearly increased”. Moreover, in the data set on STING pathway, the “expression of a gene group in the STING pathway” value is recorded as “increased”. Moreover, the “expression level of EBNA1” value with EBNA1 is listed as “reduced the expression level”. Further, in data set [2] (EBV-positive Raji, EBV-negative BJAB), the “growth-suppressive effect on EBV-positive cells and EBV-negative cells” value is “strong growth-suppressive effect on both EBV-positive cells and EBV-negative cells”. The “cell growth-suppressive action on MYC-positive lymphoma cells” value in data set [2] (Raji, BJAB) is reported as “distinct cell growth-suppressive action”. In addition, in data set [3] (four cell lines (KAI-3, NK-S1, NK-92, KHYG-1) versus the other seven cell lines), the IC50 values result is given as “lower IC50 values compared to other cell lines”. Also, in [3] (four cell lines (KAI-3, NK-S1, NK-92, KHYG-1)), the “sensitivity to BCV” value is listed as “high sensitivity to BCV”. Moreover, in the data set on HMGB1, the “release of HMGB1” value was “clearly increased”. In addition, in the data set with NK-S1 cell line (setting [6]), the “type of combined effect based on the combination index value” is on record as “synergistic effect” and the “effect of combined treatment compared to each drug alone” value was “significant enhancement of the effect”. In the data set with NK-S1 cell line (setting [7]), the “type of combined effect based on the combination index value” was “synergistic effect” and the “effect of combined treatment compared to each drug alone” value is on record as “significant enhancement of the effect”. The cell growth-suppressive effect entry in data set [4] is recorded as “significantly better cell growth-suppressive effect”. In [5] (NK-S1 in NSG mice, Days 1-15, Figs. 3A to 3D), the “enlargement of EBV-positive NK/T lymphoma (tumor size)” value was “significantly suppressed the enlargement of EBV-positive NK/T lymphoma”. In [5] (NSG mice), the “animal's health status” value is “good” and the “signs of toxicity: diarrhea” value is “no diarrhea observed”. Moreover, the Myc expression entry in the data set with Myc (BCV 0.1 µg/mL and 1 µg/mL, Fig. 5A) is recorded as “significantly reduced Myc expression”. Also, the “expression of a gene group controlled by MYC” value with Myc (BCV-treated, Fig. 5) was “significantly reduced the expression of a gene group controlled by MYC”.
